In patent US5241047A, “Synthetic peptides and mixtures thereof for detecting HIV antibodies” (BioChem Pharma Inc., priority 1990, dated 1993):
Positions of bridges follow the written chain, without caps; N, C: chain ends. Residues, ends and D or L forms follow the SMILES beside them.

What was measured:
Format in all cases: binding, human
HIV-2 antibodies = assay: ELISA with peptide-coated wells, HIV-2 seropositive plasma pool serially diluted; details: Test 314
Method: (§1) A preferred convenient and classical technique for the determination of antibodies against HIV-1 or HIV-2 using a peptide or a peptide mixture of the present invention is an enzyme-linked immunosorbent assay (ELISA). In this assay, for example, a peptide, peptide mixture or combination of the present invention is adsorbed onto, or covalently coupled to, the wells of a microtiter plate. The wells are then treated with the sera or analyte to be tested. After washing, antihuman IgG or antihuman IgM labeled with peroxidase is added to the wells. The determination of the peroxidase is performed with a corresponding substrate, e.g., with o-phenylene diamine. Without departing from the usefulness of the illustrative assay, the peroxidase can be exchanged by another label, e.g., by a radioactive, fluorescence chemiluminescence or infrared emitting label.
(§2) O.D. Values were obtained at 450 nm and the blank values measured with the sample dilution buffer were not subtracted.
(§3) Samples NEIA-2*2, BBI-1-162 to 168, 87B140, 87L139, 87V103 are all negative for HIV antibodies. Sample LSPQ-S9-1 is an early seroconverter (HIV-1). The series labeled CAP-113 to CAP-120 corresponds to a pool of seven HIV-1 positive plasma samples serially diluted with an HIV-negative plasma. CAP-113 is the pool diluted 50-fold with the HIV-negative plasma; CAP-114 is diluted 100-fold; CAP-115 is diluted 200-fold; etc. Similarly, the series labeled CAP-222 to CAP-230 corresponds to a pool of seven HIV-2 confirmed seropositive plasma samples. CAP-222 is diluted by 50 with an HIV-negative plasma; CAP-223 by 100; etc. Before the assay is done, each sample, including the CAP-series, is further diluted by 50 with the sample dilution buffer. In these tests, the cut-off for seropositivity is defined as the sum of the O.D. value for sample NEIA-2*2 plus 0.100.
(§4) Each well of the microtiter plate is saturated with 100 μl of a solution containing a peptide or mixture of peptides (5 μg/ml) and left overnight. The wells are emptied and washed twice with a washing buffer (Tris, 0.043M; NaCl, 0.5M; thimerosal, 0.01% w/v; Tween 20, 0.05% v/v; pH 7.4). The wells are then saturated with 0.35 ml of washing buffer for 1 hr. at 37° C. and washed once with the same buffer. Serum samples to be analyzed are diluted with specimen buffer (washing buffer plus casein, 0.05% w/v). The wells are rinsed with washing buffer prior to the addition of the diluted serum sample (0.1 ml). These are left to incubate for 1 hr. at room temperature. The wells are then emptied, washed twice rapidly and then once for two minutes with washing buffer. […] The wells are then emptied and washed twice rapidly with washing buffer and then five times in which the buffer was in contact with the well 2 minutes per washing. The substrate solution (3,3',5,5'-tetramethylbenzidine, 8 mg per ml of DMSO) is diluted with 100 volumes 0.1M citrate-acetate buffer, pH 5.6 containing 0.1% v/v of 30% H2 O2 and added to each well (0.1 ml per well). After 10 minutes the contents of each well is treated with 0.1 ml 2N H2 SO4 and the optical density read at 450 nm. All determinations are done in duplicate.
(§5) Peptide cocktails were prepared by mixing together equal volumes of two peptide solutions each at 10 ug/ml. One cocktail used peptides BCH-87c and BCH-202c and the other cocktail was a mixture of BCH-87ck and BCH-202ck. Each cocktail was used to coat two series of plates as described earlier.

HIV-1 antibodies = assay: ELISA with peptide-coated wells, HIV-1 antibody positive samples (diluted plasma pool, seroconversion samples)
Method: as §1, §2, §3
as §4, with “duplicate. […]” for “duplicate.”

HIV antibodies = assay: ELISA with peptide-coated wells, samples negative for HIV antibodies or not described
Method: as §1, §2, §3, §4, §5

[1] = Test 350, sample CAP-10 (progressively higher dilutions)
[2] = Test 350, sample CAP-11 (progressively higher dilutions)
[3] = Test 350, sample CAP-12 (progressively higher dilutions)
[4] = Test 350, sample CAP-13 (progressively higher dilutions)
[5] = Test 350, sample CAP-14 (progressively higher dilutions)
[6] = Test 350, sample CAP-15 (progressively higher dilutions)
[7] = Test 350, sample CAP-16 (progressively higher dilutions)
[8] = Test 350, sample CAP-17 (progressively higher dilutions)
[9] = Test 350, sample CAP-18 (progressively higher dilutions)
[10] = Test 350, sample CAP-19 (progressively higher dilutions)
[11] = Test 350, sample 2-87-L-139 (negative for HIV antibodies)
[12] = Test 350, sample 2-87-V-103 (negative for HIV antibodies)
[13] = Test 350, sample 89-D-307 (not described)
[14] = Test 350, sample NEIA-2*2 (negative for HIV antibodies)

In the case of `CC[C@H](C)[C@H](NC(=O)CNC(=O)[C@H](CC(C)C)NC(=O)[C@H](CC(C)C)NC(=O)[C@H](CCC(N)=O)NC(=O)[C@H](CCC(N)=O)NC(=O)[C@H](CC(=O)O)NC(=O)[C@H](CCCCN)NC(=O)[C@H](CC(C)C)NC(=O)[C@H](Cc1ccc(O)cc1)NC(=O)[C@H](CCCNC(=N)N)NC(=O)[C@H](CCC(=O)O)NC(=O)[C@@H](NC(=O)[C@H](C)NC(=O)[C@H](CC(C)C)NC(=O)[C@@H](NC(=O)[C@H](CCCCN)NC(=O)[C@@H](N)CCCCN)[C@@H](C)CC)C(C)C)C(=O)N[C@@H](Cc1c[nH]c2ccccc12)C(=O)NCC(=O)N[C@H]1CSSC[C@@H](C(=O)N[C@H](C(=O)N[C@H](C(=O)N[C@@H](C)C(=O)N[C@H](C(=O)N2CCC[C@H]2C(=O)N[C@@H](Cc2c[nH]c3ccccc23)C(=O)N[C@@H](CC(N)=O)C(=O)N[C@@H](C)C(=O)N[C@@H](CO)C(=O)O)C(C)C)[C@@H](C)O)[C@@H](C)O)NC(=O)[C@H]([C@@H](C)CC)NC(=O)[C@H](CC(C)C)NC(=O)[C@H](CCCCN)NC(=O)CNC(=O)[C@H](CO)NC1=O` [BCH-266] (H-KKILAVERYLKDQQLLGIWGCSGKLICTTAVPWNAS-OH; disulfide 21-27), the “O.D. 450 nm” value (HIV-2 antibodies; sample CAP-223 (HIV-2 positive pool diluted by 100)) is reported as 0.075, the “O.D. 450 nm” value (HIV-2 antibodies; sample CAP-224 (HIV-2 positive pool, serial dilution)) is reported as 0.084 and the “O.D. 450 nm” value (HIV-2 antibodies; sample CAP-225 (HIV-2 positive pool, serial dilution)) is reported as 0.135. For the same compound, the “O.D. 450 nm” value (HIV-2 antibodies; sample CAP-226 (HIV-2 positive pool, serial dilution)) was 0.140, the “O.D. 450 nm” value (HIV-2 antibodies; sample CAP-227 (HIV-2 positive pool, serial dilution)) was 0.085 and the “O.D. 450 nm” value (HIV-2 antibodies; sample CAP-228 (HIV-2 positive pool, serial dilution)) was 0.091. The “O.D. 450 nm” value (HIV-2 antibodies; sample CAP-230 (HIV-2 positive pool, serial dilution)) was 0.123, the “O.D. 450 nm” value (HIV-1 antibodies; Test 314, sample CAP-113 (HIV-1 positive plasma pool diluted 50-fold)) was > 2.8 and the “O.D. 450 nm” value (HIV-1 antibodies; Test 314, sample CAP-114 (HIV-1 positive pool diluted 100-fold)) was > 2.8. The “O.D. 450 nm” value (HIV-1 antibodies; Test 314, sample CAP-115 (HIV-1 positive pool diluted 200-fold)) was > 2.8, the “O.D. 450 nm” value (HIV-1 antibodies; Test 314, sample CAP-116 (HIV-1 positive pool, serial dilution)) was 2.376 and the “O.D. 450 nm” value (HIV-1 antibodies; Test 314, sample CAP-117 (HIV-1 positive pool, serial dilution)) was 1.569. The “O.D. 450 nm” value (HIV-1 antibodies; Test 314, sample CAP-118 (HIV-1 positive pool, serial dilution)) was 0.934, the “O.D. 450 nm” value (HIV-1 antibodies; Test 314, sample CAP-119 (HIV-1 positive pool, serial dilution)) was 0.567 and the “O.D. 450 nm” value (HIV-1 antibodies; Test 314, sample CAP-120 (HIV-1 positive pool, serial dilution)) was 0.376. For the same compound, the “O.D. 450 nm” value (HIV-1 antibodies; [1]) was > 2.8, the “O.D. 450 nm” value (HIV-1 antibodies; [2]) was > 2.8 and the “O.D. 450 nm” value (HIV-1 antibodies; [3]) was > 2.8. For the same compound, the “O.D. 450 nm” value (HIV-1 antibodies; [4]) was 2.021, the “O.D. 450 nm” value (HIV-1 antibodies; [5]) was 1.248 and the “O.D. 450 nm” value (HIV-1 antibodies; [6]) was 0.680. For the same compound, the “O.D. 450 nm” value (HIV-1 antibodies; [7]) was 0.366, the “O.D. 450 nm” value (HIV-1 antibodies; [8]) was 0.198 and the “O.D. 450 nm” value (HIV-1 antibodies; [9]) was 0.116. For the same compound, the “O.D. 450 nm” value (HIV-1 antibodies; [10]) was 0.056, the “O.D. 450 nm” value (HIV antibodies; Test 314, sample BBI-1-162 (negative for HIV antibodies)) was 0.028 and the “O.D. 450 nm” value (HIV antibodies; Test 314, sample BBI-1-169 (not described)) was 0.138. For the same compound, the “O.D. 450 nm” value (HIV antibodies; Test 314, sample BBI-1-172 (not described)) was 0.030, the “O.D. 450 nm” value (HIV antibodies; Test 314, sample NEIA-2*2 (negative for HIV antibodies)) was 0.069 and the “O.D. 450 nm” value (HIV antibodies; [11]) was 0.147. For the same compound, the “O.D. 450 nm” value (HIV antibodies; [12]) was 0.020, the “O.D. 450 nm” value (HIV antibodies; [13]) was 0.030 and the “O.D. 450 nm” value (HIV antibodies; [14]) was 0.023.
In the case of `CC[C@H](C)[C@H](NC(=O)[C@H](CC(C)C)NC(=O)[C@H](CCCCN)NC(=O)CNC(=O)[C@H](CO)NC(=O)[C@H](C)NC(=O)[C@H](CC(N)=O)NC(=O)[C@H](Cc1c[nH]c2ccccc12)NC(=O)[C@@H]1CCCN1C(=O)[C@@H](NC(=O)[C@H](C)NC(=O)[C@@H](NC(=O)[C@@H](NC(=O)[C@@H]1CSSC[C@H](NC(=O)CNC(=O)[C@H](Cc2c[nH]c3ccccc23)NC(=O)[C@@H](NC(=O)CNC(=O)[C@H](CC(C)C)NC(=O)[C@H](CC(C)C)NC(=O)[C@H](CCC(N)=O)NC(=O)[C@H](CCC(N)=O)NC(=O)[C@H](CC(=O)O)NC(=O)[C@H](CCCCN)NC(=O)[C@H](CC(C)C)NC(=O)[C@H](Cc2ccc(O)cc2)NC(=O)[C@H](CCCNC(=N)N)NC(=O)[C@H](CCC(=O)O)NC(=O)[C@@H](NC(=O)[C@H](C)NC(=O)[C@H](CC(C)C)NC(=O)[C@@H](NC(=O)[C@@H](N)CCCCN)[C@@H](C)CC)C(C)C)[C@@H](C)CC)C(=O)N[C@@H](CO)C(=O)NCC(=O)N[C@@H](CCCCN)C(=O)N[C@@H](CC(C)C)C(=O)N[C@@H]([C@@H](C)CC)C(=O)N1)[C@@H](C)O)[C@@H](C)O)C(C)C)C(=O)O` [BCH-408] (H-KILAVERYLKDQQLLGIWGCSGKLICTTAVPWNASGKLI-OH; disulfide 20-26), the “sensitivity compared to the other peptides” value (HIV-1 antibodies; Table 3, versus BCH-87c, BCH-87ck, BCH-266 at progressively higher dilutions) is reported as “superior sensitivity”, the “O.D. 450 nm” value (HIV-1 antibodies; [1]) is reported as > 2.8 and the “O.D. 450 nm” value (HIV-1 antibodies; [2]) is reported as > 2.8. The “O.D. 450 nm” value (HIV-1 antibodies; [3]) was > 2.8, the “O.D. 450 nm” value (HIV-1 antibodies; [4]) was 2.319 and the “O.D. 450 nm” value (HIV-1 antibodies; [5]) was 1.433. The “O.D. 450 nm” value (HIV-1 antibodies; [6]) was 0.835, the “O.D. 450 nm” value (HIV-1 antibodies; [7]) was 0.455 and the “O.D. 450 nm” value (HIV-1 antibodies; [8]) was 0.244. The “O.D. 450 nm” value (HIV-1 antibodies; [9]) was 0.156, the “O.D. 450 nm” value (HIV-1 antibodies; [10]) was 0.102 and the “O.D. 450 nm” value (HIV antibodies; [11]) was 0.025. For the same compound, the “O.D. 450 nm” value (HIV antibodies; [12]) was 0.014, the “O.D. 450 nm” value (HIV antibodies; [13]) was 0.029 and the “O.D. 450 nm” value (HIV antibodies; [14]) was 0.035.
